Source: patent US20180071317A1, “USE OF AGENTS THAT ALTER THE PERITUMORAL ENVIRONMENT FOR THE TREATMENT OF CANCER” (SERVICIO ANDALUZ DE SALUD, priority 2011, published 2018)

How the values were obtained:
[1] = tested on: tumor cells from primary human tumors (MAP Kinase pathway); assay: Proliferation of primary human tumor cells (ERK modified or unchanged) alone or with stromal fibroblasts; assay type: cell-based; conditions: antagonist 1 μM
[2] = tested on: tumor cells from primary human tumors (MAP Kinase pathway); assay: Proliferation of primary human tumor cells (ERK modified or unchanged) alone or with macrophages; assay type: cell-based; conditions: antagonist 1 μM
[3] = tested on: tumor cells from primary human tumors (PI3 Kinase pathway); assay: Proliferation of primary human tumor cells (AKT modified or unchanged) alone or with macrophages; assay type: cell-based; conditions: antagonist 1 μM
[4] = tested on: primary human tumor cells; assay: Proliferation of primary human tumor cells with low dose Aprepitant alone or with fibroblasts, leukocytes or macrophages; conditions: low dose (5 nanomolar)
[5] = tested on: cell line C-12210 (microvascular endothelial cells); assay: Proliferation of C-12210 endothelial cell cultures (MTS); assay type: cell-based, human;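 further: MTS colorimetric read-out in culture wells, absorbance at 492 nm with 690 nm reference, MTS added 90 min before reading, blank without cells, compared with untreated control cells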
[6] = tested on: human primary macrophages (PHM); assay: IL-8 Western blotting in human primary macrophages; assay type: cell-based; conditions: cultured in the presence of SP
Text: Further cells that make up the microenvironment are peritumoral macrophage lineage cells that are of great importance in the development of the microenvironment around the tumor, by interacting with tumor cells to stimulate their growth and spread by secretion into the medium of different markers that promote the expansion and growth of tumors. In this sense the next step was to analyze the effect exerted by the treatment with non-peptide NK1 antagonists in human primary macrophages (PHM) obtained and purified from pleural effusion samples obtained from men with chronic age range between 45 and 55 years. Briefly, the pleural fluid from chronic (rich in macrophages) was centrifuged. […]
Similar results were obtained in the case of TNF-α, respect to its expression to those obtained using the other markers analyzed: EGF, MMP-9 and VEGF, i.e., the treatment with the non-peptide receptor NK1 inhibited the TNF-α marker expression. Also the presence of IL-8 were determined by Western blotting, as explained in Example 1, using […] primary antibody (AB1427, Merck-Millipore).

[7] = irrespective of MAP Kinases pathway integrity

Structure (SMILES): C[C@@H](O[C@H]1OCCN(Cc2n[nH]c(=O)[nH]2)[C@H]1c1ccc(F)cc1)c1cc(C(F)(F)F)cc(C(F)(F)F)c1 [Aprepitant]
- growth of primary tumor cells cultured alone (in words) ([1]; ERK modified or unchanged): only inhibits the growth of cells in which the receptor acts NK1 through the MAP Kinases pathway
- proliferation of primary tumor cells co-cultured with stromal fibroblasts (in words) [1, 7]: produces a proliferation of inhibition of tumor cells
- growth of primary tumor cells cultured alone (in words) ([2]; ERK modified or unchanged): only inhibits the growth of cells in which said receptor acts through the MAP Kinases pathway
- proliferation of primary tumor cells co-cultured with macrophages (in words) [2, 7]: produces a proliferation of inhibition of tumor cells
- growth of primary tumor cells cultured alone (in words) ([3]; AKT modified or unchanged): only inhibits the growth of cells in which said receptor acts through the PI3 Kinase pathway
- proliferation of primary tumor cells co-cultured with macrophages (in words) ([3]; irrespective of PI3 Kinase pathway integrity): produces a proliferation of inhibition of tumor cells
- growth of primary tumor cells cultured alone (in words) [4]: does not inhibit the growth of tumor cells at low dose
- proliferation of primary tumor cells co-cultured with stromal fibroblasts and immune/inflammatory cells (in words) [4]: produces a proliferation of inhibition of tumor cells

Structure (SMILES): CSCC[C@H](NC(=O)[C@H](CC(C)C)NC(=O)CNC(=O)[C@H](Cc1ccccc1)NC(=O)[C@H](Cc1ccccc1)NC(=O)[C@H](CCC(N)=O)NC(=O)[C@H](CCC(N)=O)NC(=O)[C@@H]1CCCN1C(=O)[C@H](CCCCN)NC(=O)[C@@H]1CCCN1C(=O)[C@@H](N)CCCNC(=N)N)C(N)=O [SP]
- proliferation, percentage of control ± SD ([5]; SP 10 nM, exposure 0 h): 102.2 ± 1%
- proliferation, percentage of control ± SD ([5]; SP 10 nM, exposure 24 h): 119.1 ± 1.8%
- proliferation, percentage of control ± SD ([5]; SP 10 nM, exposure 48 h): 139.3 ± 3.1%
- proliferation, percentage of control ± SD ([5]; SP 10 nM, exposure 72 h): 134.3 ± 2.8%
- proliferation, percentage of control ± SD ([5]; SP 100 nM, exposure 0 h): 109.5 ± 2.9%
- proliferation, percentage of control ± SD ([5]; SP 100 nM, exposure 24 h): 17 ± 2.7%
- proliferation, percentage of control ± SD ([5]; SP 100 nM, exposure 48 h): 21 ± 2.6%
- proliferation, percentage of control ± SD ([5]; SP 100 nM, exposure 72 h): 32.4 ± 3.3%
- proliferation, percentage of control ± SD ([5]; SP 500 nM, exposure 0 h): 128.9 ± 2.7%
- proliferation, percentage of control ± SD ([5]; SP 500 nM, exposure 24 h): 137 ± 3.8%
- proliferation, percentage of control ± SD ([5]; SP 500 nM, exposure 48 h): 146 ± 4.7%
- proliferation, percentage of control ± SD ([5]; SP 500 nM, exposure 72 h): 158.5 ± 4.6%
- proliferation, percentage of control ± SD ([5]; SP 1 μM, exposure 0 h): 175.3 ± 5.2%
- proliferation, percentage of control ± SD ([5]; SP 1 μM, exposure 24 h): 186 ± 6.3%
- proliferation, percentage of control ± SD ([5]; SP 1 μM, exposure 48 h): 194.4 ± 6.5%
- proliferation, percentage of control ± SD ([5]; SP 1 μM, exposure 72 h): 199 ± 5.5%
- proliferation, percentage of control ± SD ([5]; SP 50 μM, exposure 0 h): 218 ± 3.5%
- proliferation, percentage of control ± SD ([5]; SP 50 μM, exposure 24 h): 242 ± 6.7%
- proliferation, percentage of control ± SD ([5]; SP 50 μM, exposure 48 h): 247 ± 6.5%
- proliferation, percentage of control ± SD ([5]; SP 50 μM, exposure 72 h): 259.4 ± 4.1%
- proliferation, percentage of control ± SD ([5]; SP 100 μM, exposure 0 h): 236.4 ± 5.6%
- proliferation, percentage of control ± SD ([5]; SP 100 μM, exposure 24 h): 258 ± 4.5%
- proliferation, percentage of control ± SD ([5]; SP 100 μM, exposure 48 h): 259.5 ± 4.6%
- proliferation, percentage of control ± SD ([5]; SP 100 μM, exposure 72 h): 266.9 ± 6.8%
- effect on growth/proliferation of C-12210 cells (in words) ([5]; increasing concentrations): stimulating effect on the growth of human endothelial cells
- IL-8 expression in macrophages, Western blotting (in words) [6]: showed expression of this marker
